# Data: patent publication US20160039917A1, “Method for Treating Eclampsia and Preeclampsia” (VELO BIO, LLC, priority 2013, published 2016)
# Like-named read-outs stand apart in the source and are kept apart here.
# What was measured:
# [1] = tested on: human placental EDLF production (fetal tissues); assay: Placental explant culture (fetal side), EDLF released into media measured by Digibind RIA; assay type: cell-based; settings: for EDLF accumulation in culture: time course; for EDLF production: fetal tissues; for EDLF in the conditioned media, earlier time points / EDLF concentration in the conditioned media: 2 μM; for EDLF in the conditioned media, earlier time points: early time point experiment
# [2] = tested on: placental ROS release (lipid peroxides); settings: 48 hours
# Protocol: (§1) For these studies placentas from uncomplicated pregnancies were obtained immediately after delivery and 4-5 small tissue pieces (˜5 mm×5 mm×5 mm) were cut off from the inner fetal side. The tissue pieces were dissected into tiny pieces with sterilized scissors. Any visible clots and blood vessels were removed with sterilized tweezers. The remaining villi were washed repeatedly with PBS to remove blood from the intervillous space. Villous tissue of ˜5 mg/well was then patted dry by sterilized paper tower and incubated in a 6-well cell culture plate with 5 mL of serum-free DMEM (Gibson, Grand Island, N.Y., USA) containing 100 U/mL penicillin, 100 μg/mL streptomycin and 0.25 μg/mL amphotericin B (Sigma, St. Louis, Mo., USA) per well for 48 hours at 37° C. in an incubator gassed with 95% air and 5% CO2.
# (§2) Conditioned media from placental explants cultured with hydrogen peroxide or under low O2 conditions were collected and assayed by a Lipid Hydroperoxide (LPO) Assay Kit (Cayman Chemical, Ann Arbor, Mich., USA) and a human TNF-alpha Quantikine ELISA Kit (R&D Systems, Minneapolis, Minn., USA) following the manufacturers' methods to determine levels of lipid oxidation.
# [3] = tested on: placental TNFα release; settings: 48 hours
# Protocol: as §1, §2
# [4] = tested on: human placental EDLF production (maternal tissues); settings: 48 hours
# Protocol: Human placenta was dissected into fetal and maternal tissues. These were incubated in buffered culture media for 48 hours in the absence or presence of graded concentrations of ketoconazole. The culture media was collected and the amount of EDLF released from the tissue was measured using an RIA.
# At the end of incubation, samples of the culture medium were collected in 15 mL conical tubes and any residual villi were removed by centrifuging at 4000 RPM for 2 min. The supernatant was stored at −80° C. as conditioned medium until later processing and assay.
# After the homogenization and tissue culture processes, homogenate and conditioned media samples were collected and assayed by radioimmunoassay. Digibind (GlaxoSmithKline, Research Triangle Park, N.C., USA) was used as the primary antibody anti-EDLF/ouabain and a rabbit anti-sheep immunoglobulin (IgG) Fab fragment antibody (Jackson ImmunoResearch Laboratories, Inc., West Grove, Pa., USA) was used as the secondary antibody. […] Tritiated ouabain (30.0 Ci/mmol, Perkin Elmer, Boston, Mass., USA) was used as a tracer. Cold ouabain solutions at graded concentrations were used as standards. A 100 μL aliquot of specimen or standard ouabain solution (50 nM, 0.1 μM, 0.2 μM, 0.5 μM, 1 μM, 3 μM), plus 50 μL of a 2.22×10^-8 M tritiated ouabain solution, 300 μL of 1.8 μg/mL Digibind solution, 60 μL of 2.12×10^-7 M 2° Ab solution and 10 μL of 10 mM pH 7.4 Tris buffer were combined and mixed well, then allowed to incubate at room temperature overnight to allow antigen-antibody binding. For the assay of conditioned media, because samples contained DMEM medium, 100 μL of DMEM were added to the reaction solutions for each standard and 100 μL of deionized H2O were added to reaction solutions for specimens to bring them to the same volume. EDLF in the several conditioned media/homogenate specimens or standard cold ouabain in the calibrating solutions competed with the labeled ouabain for Digibind and then the secondary (2°) antibody was added to bind to the primary (1°) antibody-antigen complex to decrease its solubility. After the overnight incubation, 563 μL of 16% polyethylene glycol (PEG)-6000 (Calbiochem, La Jolla, Calif., USA) was added to each reaction solution to precipitate the antibody-antigen complex. After centrifugation at 13,200 rpm for 30 min, the supernatant was discarded and the pellet was resuspended in 500 μL of 0.05 M phosphate buffer (pH 7.0).
compound,measurement,setting,value
"CC(=O)[C@@]1(O)CC[C@H]2[C@@H]3CCC4=CC(=O)CC[C@]4(C)[C@H]3CC[C@@]21C [17P, 17α-hydroxyprogesterone]",EDLF released into the culture media,"[1]; 48 hours, 0.20 μM",3.60±1.06 ×10^−8 M ouabain equivalents
same,EDLF released into the culture media,"[1]; 48 hours, 0.50 μM",3.76±0.84 ×10^−8 M ouabain equivalents
same,EDLF released into the culture media,"[1]; 48 hours, 1.0 μM",4.40±1.12 ×10^−8 M ouabain equivalents
same,EDLF released into the culture media,"[1]; 48 hours, 2.0 μM",4.91±1.52 ×10^−8 M ouabain equivalents
same,EDLF accumulation in culture,"[1]; 2.0 μM, 6 hours",12.60±3.81 ×10^−8 M ouabain equivalents
same,EDLF accumulation in culture,"[1]; 2.0 μM, 12 hours",28.30±6.30 ×10^−8 M ouabain equivalents
same,EDLF accumulation in culture,"[1]; 2.0 μM, 24 hours",55.39±33.62 ×10^−8 M ouabain equivalents
same,EDLF accumulation in culture,"[1]; 2.0 μM, 36 hours",95.00±40.44 ×10^−8 M ouabain equivalents
same,EDLF accumulation in culture,"[1]; 2.0 μM, 48 hours",132.43±74.37 ×10^−8 M ouabain equivalents
"OO [H2O2, hydrogen peroxide]",lipid peroxides,[2]; 1.0 nM,6.62 ± 3.31 µM
same,lipid peroxides,[2]; 5.0 nM,9.17 ± 3.18 µM
same,lipid peroxides,[2]; 10.0 nM,11.43 ± 3.67 µM
same,lipid peroxides,[2]; 20.0 nM,13.13 ± 5.04 µM
same,TNFα release,[3]; 1.0 nM,18.61 ± 13.60 pg/mL
same,TNFα release,[3]; 5.0 nM,14.95 ± 6.39 pg/mL
same,TNFα release,[3]; 10.0 nM,15.83 ± 6.63 pg/mL
same,TNFα release,[3]; 20.0 nM,13.50 ± 3.43 pg/mL
same,released EDLF,"[1]; 48 hours, 5 nM",4.87±1.57 ×10^−8 M ouabain equivalents
same,EDLF levels in the media,"[1]; higher concentrations (10 nM, 20 nM)",equal or slightly lower than those treated with 5 nM H2O2
"CC(=O)[C@H]1CC[C@H]2[C@@H]3CCC4=CC(=O)CC[C@]4(C)[C@H]3CC[C@]12C [Progesterone, progesterone]",effect on EDLF production,[1]; placenta,little or no effect
CC(=O)N1CCN(c2ccc(OCC3COC(Cn4ccnc4)(c4ccc(Cl)cc4Cl)O3)cc2)CC1 (stereo not drawn) [ketoconazole],EDLF production,[4]; 1.0 μM,1.90±2.05 ×10^−8 M RIA ouabain equivalents
same,EDLF production,[4]; 2.0 μM,1.79±1.96 ×10^−8 M RIA ouabain equivalents
same,EDLF production,[4]; 5.0 μM,1.83±2.03 ×10^−8 M RIA ouabain equivalents
same,EDLF production,[4]; 10.0 μM,1.73±1.82 ×10^−8 M RIA ouabain equivalents
same,EDLF production,[4]; 20.0 μM,2.46±2.60 ×10^−8 M RIA ouabain equivalents
same,EDLF production,"[1]; 48 hours, 1.0 μM",7.99±13.21 ×10^−8 M RIA ouabain equivalents
same,EDLF production,"[1]; 48 hours, 2.0 μM",5.58±8.91 ×10^−8 M RIA ouabain equivalents
same,EDLF production,"[1]; 48 hours, 5.0 μM",1.60±1.62 ×10^−8 M RIA ouabain equivalents
same,EDLF production,"[1]; 48 hours, 10.0 μM",1.47±1.64 ×10^−8 M RIA ouabain equivalents
same,EDLF production,"[1]; 48 hours, 20.0 μM",1.25±1.43 ×10^−8 M RIA ouabain equivalents
CC(=O)[C@H]1CC[C@H]2[C@@H]3CC=C4C[C@@H](O)CC[C@]4(C)[C@H]3CC[C@]12C [pregnenolone],"EDLF in the conditioned media, earlier time points",[1]; 3 hours,77.4+25.0 ×10^−8 M
same,EDLF concentration in the conditioned media,[1]; 6 hours,325.6±61.0 ×10^−8 M
same,"EDLF in the conditioned media, earlier time points",[1]; 6 hours,76.8+35.0 ×10^−8 M ouabain equivalents
same,EDLF concentration in the conditioned media,[1]; 12 hours,136.1±27.7 ×10^−8 M
same,EDLF concentration in the conditioned media,[1]; 24 hours,148.4±15.1 ×10^−8 M
same,EDLF concentration in the conditioned media,[1]; 36 hours,113.6±14.4 ×10^−8 M
same,EDLF concentration in the conditioned media,[1]; 48 hours,48.5±7.4 ×10^−8 M
TNFα,EDLF released into the culture media,"[1]; 48 hours, 1.0 nM",2.41±0.80 ×10^−8M ouabain equivalents
same,EDLF released into the culture media,"[1]; 48 hours, 2.0 nM",2.75±0.98 ×10^−8M ouabain equivalents
same,EDLF released into the culture media,"[1]; 48 hours, 5.0 nM",2.76±0.80 ×10^−8M ouabain equivalents
same,EDLF released into the culture media,"[1]; 48 hours, 10.0 nM",3.51±0.69 ×10^−8M ouabain equivalents
same,EDLF released into the culture media,"[1]; 48 hours, 20.0 nM",4.47±0.99 ×10^−8M ouabain equivalents
